According to patent US9593305B2, “Differentiation of pluripotent stem cells” (Janssen Biotech, Inc., priority 2008, dated 2017):

Experiments:
[1] = system: H1 human embryonic stem cells; test: Secondary assay: panel of compounds with growth factor combinations and muscimol, no activin A (Example 6, Table 5); type: cell-based
Protocol: Clusters of H1 human embryonic stem cells were grown on reduced growth factor […]™ (Invitrogen; Cat #356231)-coated tissue culture plastic. Cells were passaged using collagenase (Invitrogen; Cat #17104-019) treatment and gentle scraping, washed to remove residual enzyme, and plated with even dispersal at a ratio of 1:1 (surface area) on reduced growth factor […]™-coated 96-well black plates (Packard ViewPlates; PerkinElmer; Cat #6005182) using volumes of 100 μl/well. Cells were allowed to attach as clusters and then recover log phase growth over a 1 to 3 day period, feeding daily with MEF-conditioned medium supplemented with 8 ng/ml bFGF (R&D Systems; Cat #233-FB). Plates were maintained at 37° C., 5% CO2 in a humidified box throughout the duration of the assay. Stocks of growth factors purchased from R&D Systems were EGF (Cat #236-EG), FGF4 (Cat #235-F4), PDGF-A (Cat #221-AA), PDGF-D (Cat #1159-SB), PDGF-A/B (Cat #222-AB), and VEGF (Cat #293-VE). […] All growth factors were solubilized in PBS with 0.1% BSA (Sigma; Cat #A7888) and stored frozen at −80° C. […] Cat #D2650) and stored frozen at −80° C. Compounds were available as 5 mM stocks in 96-well plate format, solubilized in 100% DMSO and stored at −80° C. Compounds were further diluted to an intermediate concentration of 0.2 mM in 50 mM HEPES (Invitrogen; Cat #15630-080), 20% DMSO and stored at 4° C. All growth factors and inhibitors were prepared in a deep well, 96-well polypropylene plate, diluted to 5× intermediate stocks in DMEM:F12 base medium at the beginning of assay and stored at 4° C. A secondary screening assay was conducted, testing in triplicate and feeding on alternate days over the four-day assay timeframe. Assays were initiated by aspirating culture medium from each well followed by three washes in PBS to remove residual growth factors and serum. Test volumes of 80 μl per well were added back containing DMEM:F12 base medium (Invitrogen; Cat #11330-032) supplemented with 0.625% FCS (HyClone; […] All remaining growth factors were tested at a final assay concentration of 50 ng/ml (EGF, FGF4, PDGF-A, PDGF-A/B, VEGF). […] At the conclusion of four-days of culture, assay plates were washed twice with PBS, fixed with 4% paraformaldehyde (Alexis Biochemical; Cat #ALX-350-011) at room temperature for 20 minutes, then washed three times with PBS and permeabilized with 0.5% Triton X-100 (Sigma; Cat #T8760-2) for 20 minutes at room temperature. Cells were washed again three times with PBS and blocked with 4% chicken serum (Invitrogen; Cat #16110082) in PBS for 30 minutes at room temperature. Primary antibody (goat anti-human SOX17; R&D Systems; cat #AF1924) was diluted 1:100 in 4% chicken serum and added to each well for one hour at room temperature. Alexa Fluor 488 conjugated secondary antibody (chicken anti-goat IgG; Molecular Probes; Cat #AZ1467) was diluted 1:200 in PBS and added to each sample well after washing three times with PBS. To counterstain nuclei, 4 μg/ml Hoechst 33342 (Invitrogen; Cat #H3570) was added for ten minutes at room temperature. Plates were washed once with PBS and left in 100 μl/well PBS for imaging. Imaging was performed using an IN Cell Analyzer 1000 (GE Healthcare) utilizing the 51008bs dichroic for cells stained with Hoechst 33342 and Alexa Fluor 488. Exposure times were optimized from positive control wells and from untreated negative control wells stained with secondary antibody alone. Images from 15 fields per well were acquired to compensate for any cell loss during the bioassay and subsequent staining procedures. […] Segmentation for the nuclei was determined based on grayscale levels (baseline range 100-300) and nuclear size. Averages and standard deviations were calculated for each replicate data set. Total SOX17 protein expression was reported as total intensity or integrated intensity, defined as total fluorescence of the cell multiplied by the area of the cell. […]

[2] = system: H1 human embryonic stem cells; test: Analog screening with GDF-8 and growth factor/agonist pool (Example 8, Tables 7 and 8); type: cell-based; parameters: Cell Number, % of positive control / Sox17 Expression, % of positive control: tested at 2.5 µM
Protocol: Briefly, clusters of H1 human embryonic stem cells were grown on reduced growth factor […]™ (Invitrogen; Cat #356231)-coated tissue culture plastic. Cells were passaged using collagenase (Invitrogen; Cat #17104-019) treatment and gentle scraping, washed to remove residual enzyme, and plated with even dispersal at a ratio of 1:1 (surface area) on reduced growth factor […]™-coated 96-well black plates (Packard ViewPlates; PerkinElmer; Cat #6005182) using volumes of 100 μl/well. Cells were allowed to attach as clusters and then recover log phase growth over a 1 to 3 day period, feeding daily with MEF conditioned medium supplemented with 8 ng/ml bFGF (R&D Systems; Cat #233-FB). Plates were maintained at 37° C., 5% CO2 in a humidified box throughout the duration of assay. Growth factors purchased from R&D Systems were EGF (Cat #236-EG), FGF4 (Cat #235-F4), PDGF-A (Cat #221-AA), PDGF-D (Cat #1159-SB), PDGF-A/B (Cat #222-AB). […] Screening was conducted using a library of compounds that were made available as 5 mM stocks in 96-well plate format, solubilized in 100% DMSO (Sigma; Cat #D2650) and stored at −80° C. The compounds were further diluted to an intermediate concentration of 0.2 mM in 50 mM HEPES (Invitrogen; Cat #15630-080), 20% DMSO and stored at 4° C. Test conditions were performed in single wells, feeding on alternate days over a four-day assay period. Primary screening assays were initiated by aspirating culture medium from each well followed by three washes in PBS (Invitrogen; Cat #14190) to remove residual growth factors and serum. On the first day of assay, test volumes of 200 μl per well were added back containing DMEM:F12 base medium (Invitrogen; Cat #11330-032) supplemented with 0.5% FCS (HyClone; […] Cat #1324-WN) plus 2.5 μM compound. All remaining growth factors were tested at a final assay concentration of 50 ng/ml (EGF, FGF4, PDGF-A, PDGF-A/B, VEGF) with the exception of GDF-8 tested at 25 ng/ml. […] Cat #120-14). […] All remaining growth factors were tested at a final assay concentration of 50 ng/ml (EGF, FGF4, PDGF-A, PDGF-A/B, VEGF) with the exception of GDF-8 tested at 25 ng/ml. […] Cat #120-14). Negative control samples contained DMEM:F12 base medium supplemented with 2% FCS. […] At the conclusion of four-days of culture, assay plates were washed twice with PBS (Invitrogen; Cat #14190), fixed with 4% paraformaldehyde (Alexis Biochemical; Cat #ALX-350-011) at room temperature for 20 minutes, then washed three times with PBS and permeabilized with 0.5% Triton X-100 (Sigma; Cat #T8760-2) for 20 minutes at room temperature. Cells were washed again three times with PBS and blocked with 4% chicken serum (Invitrogen; Cat #16110082) in PBS for 30 minutes at room temperature. Primary antibody (goat anti-human SOX17; R&D Systems; Cat #AF1924) was diluted 1:100 in 4% chicken serum and added to each well for one hour at room temperature. Alexa Fluor 488 conjugated secondary antibody (chicken anti-goat IgG; Molecular Probes; Cat #AZ1467) was diluted 1:200 in PBS and added to each sample well after washing three times with PBS. To counterstain nuclei, 4 μg/ml Hoechst 33342 (Invitrogen; Cat #H3570) was added for ten minutes at room temperature. Plates were washed once with PBS and left in 100 μl/well PBS for imaging. Imaging was performed using an IN Cell Analyzer 1000 (GE Healthcare) utilizing the 51008bs dichroic for cells stained with Hoechst 33342 and Alexa Fluor 488. Exposure times were optimized from positive control wells and from untreated negative control wells stained with secondary antibody alone. Images from 15 fields per well were acquired to compensate for any cell loss during the bioassay and subsequent staining procedures. […] Segmentation for the nuclei was determined based on gray-scale levels (baseline range 100-300) and nuclear size. Averages and standard deviations were calculated for each replicate data set. […]

[3] = EGF, FGF, PDGF-A, VEGF, PDGF-D, muscimol, GDF8
[4] = Plate 2, compound + EGF, FGF, PDGF-A, VEGF, PDGF-D, muscimol, GDF8
[5] = Plate 2, compound + EGF, FGF, PDGF-A, VEGF, PDGF-D, muscimol, GDF8, positive control Activin A/Wnt3a
[6] = Table 8: hits with greater than 25% activity of the positive control, with GDF-8 and growth factors/agonists
[7] = Plate 1, compound + EGF, FGF, PDGF-A, VEGF, PDGF-D, muscimol, GDF8
[8] = Plate 1, compound + EGF, FGF, PDGF-A, VEGF, PDGF-D, muscimol, GDF8, positive control Activin A/Wnt3a

| Compound | Cell Number, Average Total Cell Number [2, 4] | Sox17 Expression, Average Total Intensity [2, 4] | Cell Number, % of positive control [2, 5] | Sox17 Expression, % of positive control [2, 5] | Cell Number, % of positive control [2, 6] | Sox17 Expression, % of positive control [2, 6] | Sox17 Expression, Average Total Intensity [2, 6] | other results |
| --- | --- | --- | --- | --- | --- | --- | --- | --- |
| 9-Methyl-2,3,4,5,7,8,9,10-octahydro-16H-17,21-(azeno)-11,15-(metheno)pyrido[3,2-g][1,3,5,9,13,17]hexaazacyclotricosin-6(1H)-one [Compound 39] | – | – | – | – | – | – | – | SOX17 expression, % of positive control response ([1]; with EGF+FGF4+PDGF-A+VEGF, no activin A): 31 % of positive control response; SOX17 expression, % of positive control response ([1]; with EGF+FGF4+PDGF-AB, no activin A): 68 % of positive control response; SOX17 expression, % of positive control response ([1]; with EGF+FGF4, no activin A): 77 % of positive control response |
| CCN1CC(=O)NCCCc2cccc(c2)-c2ncnc(n2)Nc2cc(Cl)cc(c2)C1 [Compound 16, 10-Chloro-14-ethyl-3,5,7,14,17,27-hexaazatetracyclo[19.3.1.1˜2,6˜1˜8,12˜]heptacosa-1(25), 2(27), 3,5,8(26), 9,11,21,23-nonaen-16-one] | 9064 | 1.48E+08 | 57.3 % of positive control | 51.8 % of positive control | – | – | – | Cell Number, % of positive control [2, 3]: 62.0%; Cell Number, Average Total Cell Number [2, 3]: 8303; Sox17 Expression, % of positive control [2, 3]: 36.7%; Sox17 Expression, Average Total Intensity [2, 3]: 9.20E+07 |
| O=C1NCCCc2cncc(c2)-c2ncnc(n2)Nc2cc(Cl)cc(c2)CN2CCCC1C2 (stereo not shown) [Compound 38, 5-Chloro-1,8,10,12,16,22,30-heptaazapentacyclo[22.2.2.1˜3,7˜0.1˜9,13˜0.1˜14,18˜]hentriaconta-3(31), 4,6,9(30), 10,12,14(29), 15,17-nonaen-23-one] | 9650 | 2.46E+08 | 61.0 % of positive control | 86.2 % of positive control | 61.0 % of positive control | 86.2 % of positive control | 2.46E+08 | – |
| O=C1NCCCc2cncc(c2)-c2ncnc(n2)Nc2cc(Cl)cc(c2)CN2CCC[C@@H]12 [Compound 36, (18S)-10-Chloro-3,5,7,14,20,26,30-heptaazapentacyclo[22.3.1.1˜2,6˜0.1˜8,12˜0.0˜14,18˜]triaconta-1(28), 2(30), 3,5,8(29), 9,11,24,26-nonaen-19-one] | – | – | – | – | 59.5 % of positive control | 37.8 % of positive control | 9.47E+07 | Cell Number, Average Total Cell Number [2, 7]: 7964; Sox17 Expression, Average Total Intensity [2, 7]: 9.47E+07; Cell Number, % of positive control [2, 8]: 59.5 % of positive control; Sox17 Expression, % of positive control [2, 8]: 37.8 % of positive control |
